Reference: BindingDB's records for doi:10.7270/Q2D21W1M (Nmmlsc, 2009)

Biological target: T1, GTPase KRas [1-37] (Homo sapiens, UniProt G3V5T7)
T1 construct: 1-37
Assay: Ras wt fluorescent nucleotide binding blockade – biochemical, additional analogs, wildtype, multiplex flow cytometry, Ki, SAR follow-up (AID 2038)
Conditions: not given

T1 sequence (G3V5T7 whole entry): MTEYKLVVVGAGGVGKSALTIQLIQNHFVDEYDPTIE

SMILES	EC50 [µM]
COc1ccc2cc([C@@H](C)C(=O)O)ccc2c1 [sodium;(2R)-2-(6-methoxy-2-naphthalenyl)propanoate]	3.11
O=C1Nc2c(Cl)cccc2C1=C1Nc2ccccc2C1=O	30
O=C1Nc2ccc(Br)cc2C1=C1Nc2ccccc2C1=O	30
O=C1NC(=S)N/C1=C1\C(=O)Nc2ccccc21 [(3Z)-3-(5-oxo-2-sulfanylideneimidazolidin-4-ylidene)-1H-indol-2-one]	30
O=C1N=c2ccccc2=C1c1[nH]c2ccccc2c1NO [3-[3-(hydroxyamino)-1H-indol-2-yl]-2-indolone]	30
C[C@@H](C(=O)O)c1cccc(Oc2ccccc2)c1 [calcium;2-(3-phenoxyphenyl)propanoic acid;hydrate]	30
O=C1N=c2c(Cl)cccc2=C1c1[nH]c2ccccc2c1NO [7-chloro-3-[3-(hydroxyamino)-1H-indol-2-yl]-2-indolone]	30
O=C1N=c2ccc(Br)cc2=C1c1[nH]c2ccccc2c1NO [5-bromanyl-3-[3-(oxidanylamino)-1H-indol-2-yl]indol-2-one]	30
COc1ccc2cc([C@H](C)C(=O)O)ccc2c1 [UNM-0000306098]	30
O=C1N=c2c(Br)cccc2=C1c1[nH]c2ccccc2c1NO [7-bromanyl-3-[3-(oxidanylamino)-1H-indol-2-yl]indol-2-one]	37.5
O=C1N=c2c(F)cccc2=C1c1[nH]c2ccccc2c1NO [7-fluoro-3-[3-(hydroxyamino)-1H-indol-2-yl]-2-indolone]	30
O=C1Nc2c(Br)cccc2C1=C1Nc2ccccc2C1=O	30
O=C1Nc2ccccc2/C1=C1/Nc2ccccc2C1=O [2-[(3Z)-2-oxo-2,3-dihydro-1H-indol-3-ylidene]-2,3-dihydro-1H-indol-3-one]	30
O=C1NC(=O)/C(=C2/C(=O)Nc3ccccc32)N1	30
O=C1Nc2c(F)cccc2C1=C1Nc2ccccc2C1=O	30

Same assay, conditions: inactive by the depositor's call

SMILES	EC50 [µM]
CC(C(=O)O)c1cccc(C(=O)c2ccccc2)c1 (configuration not stated) [2-(3-benzoylphenyl)propanoic acid]	30
O=C(C#Cc1ccccc1)c1ccc(OC(F)(F)F)cc1	30
COc1ccc(-c2c(C#N)c(N)n(S(C)(=O)=O)c2C(=O)c2ccccc2)cc1Br [2-azanyl-4-(3-bromanyl-4-methoxy-phenyl)-1-methylsulfonyl-5-(phenylcarbonyl)pyrrole-3-carbonitrile]	30
CSc1ccc(/C=C2/C(C)=C(CC(=O)O)c3cc(F)ccc32)cc1 [{6-Fluoro-2-methyl-3-[1-(4-methylsulfanyl-phenyl)-meth-(E)-ylidene]-3H-inden-1-yl}-acetic acid]	30
O=C(C#Cc1ccccc1)c1ccccc1 [UNM-0000306039]	30
COc1cc(-c2c(C#N)c(N)n(S(=O)(=O)c3c(C(C)C)cc(C(C)C)cc3C(C)C)c2C(=O)c2ccccc2)cc(OC)c1OC [2-azanyl-5-(phenylcarbonyl)-4-(3,4,5-trimethoxyphenyl)-1-[2,4,6-tri(propan-2-yl)phenyl]sulfonyl-pyrrole-3-carbonitrile]	30
O=C(C#Cc1ccccc1)c1ccc([N+](=O)[O-])cc1 [1-(4-nitrophenyl)-3-phenyl-2-propyn-1-one]	30
COc1ccc(C(=O)C#Cc2ccccc2)cc1 [1-(4-methoxyphenyl)-3-phenyl-2-propyn-1-one]	30
CC(C)Cc1ccc([C@H](C)C(=O)O)cc1 [(S)-2-(4-Isobutyl-phenyl)-propionic acid]	30
COc1ccc(S(=O)(=O)n2c(N)c(C#N)c(-c3cncc(Br)c3)c2C(=O)c2ccccc2)cc1 [2-amino-5-benzoyl-4-(5-bromo-3-pyridinyl)-1-(4-methoxyphenyl)sulfonyl-3-pyrrolecarbonitrile]	30
N#Cc1ccc(C(=O)C#Cc2ccccc2)cc1 [4-(3-phenylprop-2-ynoyl)benzenecarbonitrile]	30
CCCCS(=O)(=O)n1c(N)c(C#N)c(-c2cc(OC)c(OC)c(OC)c2)c1C(=O)c1ccccc1 [2-amino-5-benzoyl-1-butylsulfonyl-4-(3,4,5-trimethoxyphenyl)-3-pyrrolecarbonitrile]	30
O=C1Nc2ccccc2/C1=C1/Cc2ccccc2C1=O [UNM-0000305763]	30
CC(=O)Oc1ccccc1C(=O)O [2-(acetyloxy)benzoic acid]	30
O=C(C#Cc1ccccc1)c1ccc(F)cc1 [UNM-0000306059]	31
O=C1Nc2cccc(Br)c2/C1=C1/Cc2ccccc2C1=O	30
COc1ccc(S(=O)(=O)n2c(N)c(C#N)c(-c3cc(Br)c(OC)c(OC)c3)c2C(=O)c2ccccc2)cc1 [UNM-0000305782]	30
N#Cc1c(-c2ccc(Cl)cc2)c(C(=O)c2ccccc2)n(S(=O)(=O)c2ccc([N+](=O)[O-])cc2)c1N [UNM-0000305780]	30
COc1ccc(S(=O)(=O)n2c(N)c(C#N)c(-c3ccccc3)c2C(=O)c2ccc(Br)cc2)cc1	30
O=C(C#Cc1ccccc1)c1ccccc1[N+](=O)[O-] [UNM-0000306038]	30
O=[N+]([O-])c1ccc(C#Cc2ccccc2)cc1	30
O=C(C#Cc1ccccc1)c1ccc(Cl)cc1 [UNM-0000306055]	30
COC(=O)c1ccc(C(=O)C#Cc2ccccc2)cc1 [4-(1-oxo-3-phenylprop-2-ynyl)benzoic acid methyl ester]	30
CC1=C(CC(=O)O)c2cc(F)ccc2/C1=C/c1ccc([S+](C)[O-])cc1 (configuration not stated) [UNM-0000306136]	30
O=C(C#Cc1ccccc1)c1cccnc1 [3-phenyl-1-pyridin-3-ylprop-2-yn-1-one]	30
COc1ccc2cc(CC(=O)O)ccc2c1 [2-(6-methoxynaphthalen-2-yl)ethanoic acid]	30
O=C1Nc2c(Br)cccc2/C1=C1/Cc2ccccc2C1=O [(3E)-7-bromo-3-(3-oxo-1H-inden-2-ylidene)-1H-indol-2-one]	30
